Key:
[1] = Flash point, closed-cup apparatus ASTM-D3278; format: physicochemical
Description: According to preferred embodiments, the organic solvent according to the present invention may have a flash point higher than 60° C., preferably higher than 62.5° C. and more preferably higher than 65° C. Flash point can be determined by closed-cup apparatus according to ASTM-D3278.
Flash point can be determined by closed-cup apparatus according to ASTM-D3278.

[2] = Vapor pressure, ebulliometry ASTM-E1719; format: physicochemical
Description: Furthermore, the solvent of formula (I) may have a vapor pressure equal to or lower than 450 Pa, preferably equal to or lower than 400 Pa, and more preferably equal to or lower 350 Pa at 20° C. For example, the solvent of formula (I) may have a vapor pressure equal to or lower than 450 Pa, or equal to or lower than 400 Pa, or equal to or lower than 350 Pa, or equal to or lower than 300 Pa, or equal to or lower than 250 Pa, or equal to or lower than 200 Pa, or equal to or lower than 250 Pa, or equal to or lower than 200 Pa, or equal to or lower than 150 Pa, or equal to or lower than 100 Pa, at 20° C. Vapor pressure can be determined by ebulliometry according to ASTM-E1719.
Vapor pressure can be determined by ebulliometry according to ASTM-E1719.

[3] = Specific gravity, hydrometer ASTM-D891; format: physicochemical
Text: The organic solvent according to the present invention may have a specific gravity equal to or lower than 0.95, and preferably equal to or lower than 0.94. According to preferred embodiments, the organic solvent according to the present invention may have a specific gravity from 0.89 to 0.95, and preferably from 0.90 to 0.94. Specific gravity can be determined by means of a hydrometer according to ASTM-D891.
Specific gravity can be determined by means of a hydrometer according to ASTMD891.

[4] = Water solubility, coulometric Karl Fischer titration ASTM-D6304; format: physicochemical
Description: According to some preferred embodiments, the organic solvent is not soluble (or essentially not soluble) in water, and preferably has a water solubility equal to or lower than 200 mg/kg, preferably equal to or lower than 190 mg/kg, and more preferably equal to or lower than […]. Water solubility can be determined by coulometric Karl Fischer titration according to ASTM-D6304.
Water solubility can be determined by coulometric Karl Fischer titration according to ASTM-D6304.

[5] = format: physicochemical
Description: The solubility of 2-ethylanthraquinone (2-EAQ) was measured in four different solvents. Solvents A to C are according to the invention, while solvent D is a comparative solvent: • Solvent A: 1-ethyl-4-methoxybenzene • Solvent B: 2,6-dimethylanisole • Solvent C: phenylpropylether • Solvent D: 1,3,5-trimethylbenzene
Solubilities were determined by equilibrating the 2-ethylanthraquinone with the solvent in a glass flask shaken in a carefully temperature controlled atmosphere. Analysis of the samples was done by liquid chromatography. Reference mixtures were prepared for calibration.
The solubility is measured at a temperature of 20° C.

COc1ccccc1 [Anisole (*), Anisole, reference compound]
Flashpoint [1]: 49-52 °C
Vapor Pressure [2]: 490 Pa
Specific gravity [3]: 0.995
Water solubility [4]: 1728 mg/kg

CCc1ccc(OC)cc1 [Solvent A, 1-ethyl-4-methoxybenzene]
2-EAQ solubility [5]: 229 g/kg of solvent
Flashpoint [1]: 68-72 °C
Vapor Pressure [2]: 67 Pa
Specific gravity [3]: 0.944
Water solubility [4]: 90 mg/kg

COc1c(C)cccc1C [Solvent B, 2,6-dimethylanisole]
2-EAQ solubility [5]: 226 g/kg of solvent
Flashpoint [1]: 61-67 °C
Vapor Pressure [2]: 124 Pa
Specific gravity [3]: 0.943
Water solubility [4]: 114 mg/kg

CCCOc1ccccc1 [Solvent C, phenylpropylether]
2-EAQ solubility [5]: 229 g/kg of solvent
Flashpoint [1]: 64-65 °C
Vapor Pressure [2]: 60 Pa
Specific gravity [3]: 0.946
Water solubility [4]: 141 mg/kg

Cc1cc(C)cc(C)c1 [Solvent D, 1,3,5-trimethylbenzene, reference compound]
2-EAQ solubility [5]: 210 g/kg of solvent

Source: US20240253988A1, “PROCESS FOR THE PRODUCTION OF HYDROGEN PEROXIDE” (ARKEMA FRANCE, priority 2021, published 2024)
